Measured values taken from article PMC6026081 (Bioorganic & medicinal chemistry letters, 2017).

Legend:
[1] = Kinetic solubility by nephelometry; assay type: physicochemical; settings: concentration range; for Sol2.0: 0.01 M HCl (approx. pH 2.0); for Sol6.5: pH 6.5 phosphate buffer
[2] = Cytotoxicity, growth inhibition of HC-04 cells; assay type: cell-based; settings: human, HC-04 cells (hepatocyte)
[3] = Cytotoxicity, growth inhibition of HEK293 cells; assay type: cell-based; settings: human, HEK293 cells (kidney)
[4] = Plasma exposure after single oral dose in non-infected mice; assay type: in vivo, male Swiss outbred mice; settings: single 100 mg/kg oral dose; for plasma concentration maintained over the 48 h sampling period / plasma concentration by ~18 h post-dose: non-infected mice; for plasma concentration maintained over the 48 h sampling period: up to 48 h post-dose; for systemic exposure (AUC to last measured concentration) relative to 1: fold higher than 1
[5] = Cytotoxicity, growth inhibition of U-20S cells; assay type: cell-based; settings: human
[6] = cited from earlier work
[7] = 46.3 mg/kg oral dose; cited from earlier work
ex vivo S. mansoni = settings: cited from earlier work
S. mansoni = settings: 400 mg/kg dose; cited from earlier work

Sol2.0 [1]	Sol6.5 [1]	SMILES	IC50 [2] [µM]	IC50 [3] [µM]	IC50 [5] [µM]	further results
1.6–3.1/1.6–3.1 μg/mL	1.6–3.1/1.6–3.1 μg/mL	NC(=O)c1ccccc1NC(=O)Nc1ccc(F)c(C(F)(F)F)c1 [Compd 14]	–	–	–	–
12.5 to 25 µg/mL	6.3 to 12.5 µg/mL	Cc1cc(NC(=O)Nc2ccc(F)c(C(F)(F)F)c2)on1 [Compd 10]	–	–	–	–
3.1–6.3/3.1–6.3 μg/mL	3.1–6.3/3.1–6.3 μg/mL	O=C(Nc1ccnc(C(F)(F)F)c1)Nc1ccc2c(c1)OC(F)(F)O2 [Compd 20]	> 100	> 100	> 100	plasma concentration maintained over the 48 h sampling period [4]: > 5 µM
<1.6/<1.6 μg/mL	<1.6/<1.6 μg/mL	CC(=O)c1ccc(NC(=O)Nc2ccc(F)c(C(F)(F)F)c2)cc1 [Compd 16]	–	–	–	–
6.3–12.5/6.3–12.5 μg/mL	6.3–12.5/6.3–12.5 μg/mL	O=C(Nc1ccncc1)Nc1ccc(F)c(C(F)(F)F)c1 [Compd 6]	–	–	–	–
<1.6/<1.6 μg/mL	<1.6/<1.6 μg/mL	N#Cc1ccc(NC(=O)Nc2ccc(F)c(C(F)(F)F)c2)cc1 [Compd 15]	> 100	> 100	> 100	plasma concentration by ~18 h post-dose [4]: below 1 μM
3.1–6.3/3.1–6.3 μg/mL	3.1–6.3/3.1–6.3 μg/mL	O=C(Nc1ccnc(C(F)(F)F)c1)Nc1ccc(F)c(C(F)(F)F)c1 [Compd 18]	> 100	> 100	> 100	systemic exposure (AUC to last measured concentration) relative to 1 [4]: 2–4 fold
12.5–25/12.5–25 μg/mL	12.5–25/12.5–25 μg/mL	O=C(Nc1ccnc(C(F)(F)F)c1)Nc1ccnc(C(F)(F)F)c1 [Compd 2]	> 100	> 100	> 100	systemic exposure (AUC to last measured concentration) relative to 1 [4]: 2–4 fold
–	12.5 to 25 µg/mL	O=C(Nc1ccc(C(=O)O)cc1)Nc1ccc(F)c(C(F)(F)F)c1 [Compd 11]	–	–	–	–
1.6 to 3.1 µg/mL	12.5 to 25 µg/mL	O=C(Nc1cccc(C(=O)O)c1)Nc1ccc(F)c(C(F)(F)F)c1 [Compd 12]	–	–	–	–
–	–	O=C(Nc1ccc(Cl)c(Cl)c1)Nc1ccc(Cl)c(Cl)c1 [MMV665852]	–	–	–	LogD7.4 [6]: 5.2; half-life [7]: 4.7 h; in vitro selectivity index (ex vivo S. mansoni): 64 fold; potency against ex vivo S. mansoni relative to praziquantel (fold less potent) (ex vivo S. mansoni): 4 fold
50 to 100 µg/mL	12.5 to 25 µg/mL	O=C(Nc1cccnc1)Nc1ccc(F)c(C(F)(F)F)c1 [Compd 7]	–	–	–	–
–	12.5 to 25 µg/mL	O=C(Nc1ccncc1)Nc1ccncc1 [Compd 3]	–	–	–	–
6.3–12.5/6.3–12.5 μg/mL	6.3–12.5/6.3–12.5 μg/mL	NC(=O)c1ccc(NC(=O)Nc2ccc(F)c(C(F)(F)F)c2)cc1 [Compd 13]	–	–	–	–
6.3–12.5/6.3–12.5 μg/mL	6.3–12.5/6.3–12.5 μg/mL	O=C(Nc1cnccn1)Nc1cnccn1 [Compd 4]	–	–	–	–
–	–	O=C(C1CCCCC1)N1CC(=O)N2CCc3ccccc3C2C1 (stereo not shown) [praziquantel]	–	–	–	worm burden reduction (S. mansoni): 96%
<1.6/<1.6 μg/mL	<1.6/<1.6 μg/mL	O=C(Nc1ccc2c(c1)OC(F)(F)O2)Nc1ccc(F)c(C(F)(F)F)c1 [Compd 17]	> 100	> 100	> 100	plasma concentration maintained over the 48 h sampling period [4]: > 5 µM
<1.6/<1.6 μg/mL	<1.6/<1.6 μg/mL	O=C(Nc1ccc2c(c1)OC(F)(F)O2)Nc1ccc2c(c1)OC(F)(F)O2 [Compd 5]	> 100	> 100	> 100	plasma concentration maintained over the 48 h sampling period [4]: > 5 µM
<1.6/<1.6 μg/mL	<1.6/<1.6 μg/mL	O=C(Nc1ccc(F)c(C(F)(F)F)c1)Nc1ccc(F)c(C(F)(F)F)c1 [Compd 1]	> 100	> 100	> 100	plasma concentration maintained over the 48 h sampling period [4]: above 1 μM
1.6–3.1/1.6–3.1 μg/mL	1.6–3.1/1.6–3.1 μg/mL	N#Cc1ccc(NC(=O)Nc2ccnc(C(F)(F)F)c2)cc1 [Compd 19]	> 100	> 100	> 100	plasma concentration by ~18 h post-dose [4]: below 1 μM
1.6 to 3.1 µg/mL	–	O=C(Nc1ccc(F)c(C(F)(F)F)c1)Nc1cnccn1 [Compd 9]	–	–	–	–
1.6 to 3.1 µg/mL	–	O=C(Nc1ccc(F)c(C(F)(F)F)c1)Nc1ccccn1 [Compd 8]	–	–	–	–
